Holding throughout (assay): growth of human tumour cells (NCI), 48 h
Assay [1] relates to 786-0 renal.
The test system of assay [2] is ACHN renal.
The subject of assay [3] is NCI-H460 lung.
In assay [4] the test system is OVCAR-3 ovarian.
Assay [5] deals with MALME-3M melanoma.
Assay [6] has as its system BT-549 breast.
Assay [7] relates to SW-620 colon.
Assay [8] has as its system M14 melanoma.
In assay [9] the test system is SK-MEL-2 melanoma.
Assay [10] concerns OVCAR-4 ovarian.
The subject of assay [11] is CCRF-CEM leukemia.
Assay [12] concerns MDA-N.
Assay [13] deals with HOP-92 NSCLC.
Assay [14] has as its system UO-31 renal.
Assay [15] relates to TK-10 renal.
The subject of assay [16] is MCF7 breast.
Assay [17] has as its system RXF 393 renal.
Assay [18] concerns MDA-MB-435.
The subject of assay [19] is T-47D breast.
In assay [20] the test system is SF-539 CNS.

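Results reflect a 48-hour exposure of cells in 96-well plates to compound at five concentrations. Definition used: TGI = concentration required for complete inhibition of growth.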

With `Cc1nnc(N2C(=O)C(=Cc3ccc(Cl)cc3)N=C2c2ccc(Cl)cc2)nc1/C=C\c1ccc(N(C)C)cc1`, the TGI in [1], in [2], in assay [3], in [4], in assay [5] and in [6] was > 100 µM each time. The TGI in [7], in assay [8], in assay [9], in [10], in assay [11] and in assay [12] was > 100 µM throughout. The TGI in assay [13], in assay [14], in assay [15], in assay [16], in [17] and in assay [18] was > 100 µM throughout. Further, in assay [19], the TGI is > 100 µM.

On to `O=S(=O)(Nc1nc2ccccc2nc1Nc1cccc2ccccc12)c1ccccc1`, for which the TGI in [1] was 68.4 µM; in [2] it was > 100 µM; in [3], > 100 µM; in assay [4] it was > 100 µM; in assay [5], > 100 µM; in [6] it was > 100 µM. Also, the TGI was > 100 µM in [7]; > 100 µM in assay [8]; > 100 µM in assay [9]; 5.99 µM in [10]; > 100 µM in assay [12]; 16.5 µM in assay [13]. Moreover, the TGI in assay [14] was > 100 µM; in [15], 28.9 µM; in assay [20], > 100 µM; in assay [16] it was > 100 µM; in assay [17], 78.9 µM; in assay [18], > 100 µM. In addition, in assay [19], the TGI is > 100 µM.

As for `CC1(C)[C@H]2CC[C@](C)(C2)[C@]1(S)Cc1ccccn1`, the TGI was > 100 µM in assay [1]; > 100 µM in [2]; > 100 µM in assay [3]; 73 µM in assay [4]; > 100 µM in assay [5]; > 100 µM in [6]. The TGI in assay [7] was > 100 µM; in assay [8], > 100 µM; in [9], 46.1 µM; in assay [11], 24.8 µM; in assay [12], > 100 µM; in assay [13], > 100 µM. Also, the TGI in [14] was > 100 µM; in [15] it was > 100 µM; in assay [20], > 100 µM; in [16] it was > 100 µM; in assay [17], 80.2 µM; in [18], 91.9 µM. In [19], the TGI is 73.1 µM.

Turning to `NNC(=O)CC(=O)Nc1ccccc1Cl`, the TGI in assay [1], in [2], in assay [3], in assay [4], in assay [5] and in assay [6] was > 100 µM each time. The TGI in [7], in [9], in assay [10], in assay [11], in assay [12] and in assay [13] was > 100 µM throughout. Moreover, the TGI in assay [14], in [15], in assay [20], in [16], in assay [17] and in assay [18] was > 100 µM each time. In addition, the TGI in [19] is > 100 µM.

As to `COC(=O)c1c(O)ccc2c1c1cc3ccccc3c(O)c1n2Cc1ccccc1Cl`, the TGI in [1] came to 54.1 µM; in assay [2] it was 95.7 µM; in assay [3], 78.4 µM; in assay [4], 39.8 µM; in assay [5], 74.7 µM; in assay [6], 91.7 µM. For the same compound, the TGI in assay [8] was 59.1 µM; in [9], 40.7 µM; in assay [10], 51.1 µM; in [11], > 100 µM; in assay [12], 61.8 µM; in assay [13], 91.7 µM. For the same compound, the TGI was 64.1 µM in assay [14]; > 100 µM in assay [15]; 33.7 µM in assay [20]; > 100 µM in [16]; > 100 µM in [17]; 40.3 µM in assay [18]. Besides, the TGI in assay [19] was found to be 60.7 µM.

For the compound `CCCCC1CCCCCCc2[nH]c(/C=C3\N=C(c4ccc[nH]4)C=C3OC)cc21` (stereo unspecified), the TGI was 0.101 µM in assay [1]; 1.12 µM in [2]; 2.92 µM in assay [3]; < 0.0224 µM in assay [4]; 0.689 µM in [5]; 1.29 µM in [6]. Moreover, the TGI in assay [7] was 1.15 µM; in assay [9], < 0.0237 µM; in assay [10], 4.23 µM; in assay [11] it was 0.566 µM; in [12], 1.35 µM; in assay [13] it was 0.42 µM. In addition, the TGI in assay [14] turned out to be 0.071 µM; in assay [15], 3.18 µM; in assay [20], 1.13 µM; in [16], 1.11 µM; in [17], 1.11 µM; in [18], 0.403 µM. The TGI in assay [19] is 2.06 µM.

In the case of `O=C(O)COc1cc(-c2ccccc2F)nc2cc3c(cc12)OCO3`, the TGI in [1], in assay [2], in assay [4], in assay [5], in assay [6] and in [7] was > 100 µM each time. Also, the TGI in assay [8], in assay [9], in assay [11], in assay [12], in assay [13] and in [15] was > 100 µM throughout. The TGI in assay [20], in assay [16], in assay [17], in [18] and in assay [19] was > 100 µM in each case.
